In patent publication US10160785B2, “Antimicrobial peptides and their use for the treatment of topical infections” (priority 2015, dated 2018):
Where a SMILES comes first, the peptide text is derived from it.

Tests used:
[1] = test system: S. aureus (Liberec) biofilm; assay: Bacterial biofilm, remaining metabolic activity (MTT); assay type: cell-based, Staphylococcus aureus; conditions: remaining metabolic activity of biofilm, 20 h
How it was run: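 Biofilms of S. aureus or P. aeruginosa (Liberec) were grown 24 h at 37° C with shaking in BHI plus 1% glucose from ca. 10^8 CFU/ml inocula. After washing, biofilms were exposed 20 h to peptides at 1–128 μmol.l^−1. Surviving metabolic activity was measured by MTT (40 min, formazan in DMSO, A540) as percent of untreated biofilm, blank-corrected.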

[2] = test system: Candida albicans (Olomouc) biofilm; assay: C. albicans biofilm, remaining metabolic activity (XTT); assay type: cell-based
Experimental: Candida albicans (Olomouc) was sub-cultured overnight in YPD medium (10 g yeast extract (DIFCO, USA), 20 g peptone (OXOID), 20 g glucose (Penta) dissolved in 1 L of distilled water) at constant shaking (100 RPM) at 37° C. Next day, the overnight culture was diluted 1:100 into fresh YPD medium and incubated at constant shaking (200 RPM) at 37° C. until the mid-exponential growth phase was reached. Then the cells were harvested and washed twice by centrifugation in physiological solution (5000 RPM; 5 min). Cells were suspended in sterile salt solution and their optical density was determined at 600 nm.
A final yeast suspension was prepared at a cell density of 1×10^6 CFU (corresponding to optical density of 0.17 at 600 nm) in RPMI 1640 medium with L-glutamine (BioSera), NaHCO3 (2 g/l; Penta) and 0.165 mol.l^−1 MOPS (Duchefa)—further as RPMI broth medium 1.
Biofilms were formed on commercially available sterile, polystyrene, flat-bottomed, 96-well microtiter plates (TPP, SW). Cell suspension (100 μl) was pipetted into selected wells of a microtiter plate and incubated without shaking for 2 hours at 37° C. Afterwards, the wells were washed twice with sterile PBS buffer (1.44 g Na2HPO4, 0.24 g KH2PO4, 0.2 g KCl and 8 g NaCl in 1 l distilled water, pH=7; Penta). Fresh RPMI broth medium 1 (100 μl) was added to each well and the plate was sealed with parafilm and incubated without shaking for 48 hours at 37° C.
Planktonic and non-adherent cells were removed by threefold washing of the biofilm with sterile PBS buffer (200 μl). A twofold serial dilution was used to reach required peptide concentration (in RPMI broth medium 1) in each well. Peptide concentrations range was between 0.39-200 μmol.l^−1. Plates were then sealed with parafilm and incubated for 20 hours at 37° C.
The metabolic activity of surviving Candida cells in the treated biofilm was determined by staining with XTT (2,3-Bis(2-methoxy-4-nitro-5-sulphophenyl)-2H-tetrazolium-5-carboxanilide). Stock solution of PMS (phenazine methosulfate; 7.5 g/l; SIGMA, Czech Republic) stored at −20° C. was diluted in PBS buffer 1:100. Diluted PMS was further mixed (2:25) with stock solution of XTT (0.5 g/l; Alchimica, Slovakia) dissolved in PBS/RPMI broth medium (1:1). Mixture (100 μl) of PMS and XTT was added into treated biofilm in the wells and incubated for 90 min at 37° C. Then the intensity of staining in each well was measured as absorbance at 540 nm on a Tecan Infinite M200 Pro reader (Tecan GmbH, Austria). Remaining metabolic activity of the cells in the biofilm was expressed for each well in percentage and calculated as follows:
[formula] where A is the absorbance of tested compound, ABL is the absorbance of negative control and AC is the absorbance of control untreated biofilm. The non-inoculated wells served as negative control. Inoculated wells not treated with compound served as positive control. Amphotericin B was used as control drug to ensure quality of Candida albicans. The values of remaining metabolic activity of treated biofilms are shown at Table 5.

C. glabrata ATCC 2001 = assay: Lethal effect on yeast cells by plating test; assay type: cell-based, Candida glabrata; conditions: 15 minutes exposure, peptide alone, FIG. 1B
Experimental: C. glabrata ATCC 2001 cells were aerobically cultivated at 30° C. on YPD medium (Formedium) overnight. A small volume of inoculum was added to fresh YPD medium to final concentration of cells 5×10^6 CFU/ml (corresponding value OD600=0.2). Yeast cells were cultivated at 30° C. (190 rpm) until they reach early exponential growth phase, usually further 4-5 h. Cells were harvested, washed twice with distilled water (1.5 min, 3000 g) and resuspended in MES-TEA buffer (10 mM 4-morpholineethanesulphonic acid, pH 6.0 adjusted with triethanolamine, both chemicals from Sigma-Aldrich) to OD600=0.2.
Cells from the early exponential growth phase were washed twice with sterile distilled water (1.5 min, 3000 g) and resuspended in MES-TEA buffer to OD600=0.2. The cell suspension was divided into 1 ml aliquots in Eppendorf tubes. One sample served as a control, the tested compounds (peptides, ODDC) were added in selected concentrations to the rest of samples. Cells were incubated with drugs with occasional gentle stirring for 15 minutes, then 10 μl of cells were diluted 100-fold in distilled water and 15 μl aliquots were spread on 2% YPD agar (Formedium) plates (diameter of Petri plate 9 cm). The samples were always plated in triplicates. The number of colonies was determined after 24-h incubation of the plates at 30° C. […]

in vitro = conditions: human
How it was run: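 Peptides at 2-200 μmol.l^−1 incubated 1 h at 37 °C with 5% v/v human erythrocyte suspension in physiological solution. Released haemoglobin in supernatant read at 540 nm against buffer (0%) and 0.2% Triton X100 (100%) lysis controls. LC50 is the peptide concentration lysing 50% of cells.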

[3] = test system: P. aeruginosa (Liberec) biofilm; assay: Bacterial biofilm, remaining metabolic activity (MTT); assay type: cell-based, Pseudomonas aeruginosa; conditions: remaining metabolic activity of biofilm, 20 h
Experimental: Inoculum of S. aureus (Liberec) or P. aeruginosa (Liberec) cultivated overnight in BHI medium was diluted with fresh BHI medium containing 1% glucose to a final concentration to be ca. 10^8 CFU/ml. Then this was pipetted (100 μl) to 96-multiwell polystyrene plate which was incubated at 37° C. under rotary shaking (300 RPM) for 24 h. Medium without bacteria in the wells was used as a negative control. Supernatant from each well was drained and the biofilm formed on the bottom and on the walls of the wells was cautiously washed three times by sterile physiological solution (300 μl). The peptides tested in the concentrations of 1-128 μmol.l^−1 were prepared by twofold serial dilution of their stock solution (1 mmol.l^−1) in fresh BHI medium and then pipetted (100 μl) to the wells with formed biofilms. The biofilms covered by BHI medium without peptide were used as a positive control. The plates were then incubated for 20 h as described above. After that the liquid was drained out and wells were washed twice with sterile physiological solution.
The metabolic activity of surviving bacterial cells in the biofilm was determined by staining with MTT (3-(4,5-dimethylthiazol-2-yl)-2,5-diphenyl-2H-tetrazolium bromide) as follows: The mixture of BHI medium (100 μl) and 10 μl of the stock solution of MTT (5 mg/ml in physiological solution) was added to each well and the plate was incubated 40 min at 37° C. The liquid was drained out and the insoluble formazan crystals formed by reduction inside the biofilm were dissolved with dimethyl sulphoxide (100 μl). The intensity of staining in each well was measured as absorbance at 540 nm on a Tecan Infinite M200 Pro reader (Tecan GmbH, Austria). Remaining activity of surviving cells inside the biofilm was expressed for each well in percentage according to the following equation:
[formula] where A is the absorbance of the tested compound, ABL is the absorbance of the negative control, and AC is the absorbance of control biofilm.

[4] = peptide concentration 8 μmol · l^−1
[5] = peptide concentration 16 μmol · l^−1
[6] = peptide concentration 32 μmol · l^−1
[7] = peptide concentration 64 μmol · l^−1
[8] = peptide concentration 128 μmol · l^−1

Compound: CC[C@@H](C)[C@@H](NC(=O)CN)C(=O)N[C@H](CCSC)C(=O)N[C@H](CO)C(=O)N[C@H](CO)C(=O)N[C@H](CC(C)C)C(=O)N[C@H](CCSC)C(=O)N[C@H](CCCCN)C(=O)N[C@H](CCCCN)C(=O)N[C@H](CC(C)C)C(=O)N[C@H](CCCCN)C(=O)N[C@H](CCCCN)C(=O)N[C@@H](C(=O)N[C@@H](C(=O)N[C@H](C)C(=O)N[C@H](CCCCN)C(N)=O)[C@H](C)CC)[C@H](C)CC [II] (HELM PEPTIDE1{G.[dI].[dM].[dS].[dS].[dL].[dM].[dK].[dK].[dL].[dK].[dK].[dI].[dI].[dA].[dK].[am]}$$$$V2.0)
- Metabolic activity (%) S. aureus (Liberec) [1, 4]: 143.1%
- Metabolic activity (%) S. aureus (Liberec) [1, 5]: 138.8%
- Metabolic activity (%) S. aureus (Liberec) [1, 6]: 107.5%
- Metabolic activity (%) S. aureus (Liberec) [1, 7]: 29.9%
- Metabolic activity (%) S. aureus (Liberec) [1, 8]: 7.7%
- Metabolic activity of C. albicans (%) ([2]; peptide concentration 6.25 μmol · l^−1, 20 hours): 105.3%
- Metabolic activity of C. albicans (%) ([2]; peptide concentration 12.5 μmol · l^−1, 20 hours): 114.2%
- Metabolic activity of C. albicans (%) ([2]; peptide concentration 25 μmol · l^−1, 20 hours): 35.2%
- Metabolic activity of C. albicans (%) ([2]; peptide concentration 50 μmol · l^−1, 20 hours): 1.0%
- Metabolic activity of C. albicans (%) ([2]; peptide concentration 100 μmol · l^−1, 20 hours): 0.0%
- Metabolic activity of C. albicans (%) ([2]; peptide concentration 200 μmol · l^−1, 20 hours): 0.0%
- antifungal (lethal) effect in plating test (C. glabrata ATCC 2001): high antifungal effect
- CC50 at 1 h (in vitro): > 400 µM
- Metabolic activity (%) P. aeruginosa (Liberec) [3, 4]: 94.2%
- Metabolic activity (%) P. aeruginosa (Liberec) [3, 5]: 100.5%
- Metabolic activity (%) P. aeruginosa (Liberec) [3, 6]: 79.1%
- Metabolic activity (%) P. aeruginosa (Liberec) [3, 7]: 33.0%
- Metabolic activity (%) P. aeruginosa (Liberec) [3, 8]: 26.7%
